Data reported in ChEMBL document CHEMBL6134838, “Discovery of c-Kit as a New Therapeutic Target in LPS-Induced Acute Lung Injury through Novel Phenylamide Derivative D9” (J Med Chem, 2025).
pIC50: −log10 of the molar value.

system: not listed separately; assay: Cytotoxicity against mouse J774.A1 cells assessed as survival rate at 10 uM measured for 48 hrs by MTT assay relative to control; conditions: not given

Row | SMILES | viability at 48 h, 10 µM
1 | O=C(NCCCN1CCOCC1)c1cc(Oc2ccc(NC(=O)c3cn(-c4ccc(Br)cc4F)c4ccccc4c3=O)cc2)ccn1 | 92.2%
2 | O=C(NCCCN1CCOCC1)c1cc(Oc2ccc(NC(=O)c3cn(-c4ccccc4)c4ccccc4c3=O)cc2)ccn1 | 82.7%
3 | O=C(NCCc1cccs1)c1cc(Oc2ccc(NC(=O)c3cn(-c4ccc(Br)cc4)c4ccccc4c3=O)cc2)ccn1 | 84.4%
4 | O=C(NCCCN1CCOCC1)c1cc(Oc2ccc(NC(=O)c3cn(-c4ccc(F)c(Cl)c4)c4ccccc4c3=O)cc2F)ccn1 | > 100%
5 | O=C(NCCc1cccs1)c1cc(Oc2ccc(NC(=O)c3cn(-c4ccc(Br)cc4)c4ccccc4c3=O)cc2F)ccn1 | 84.3%
6 | O=C(NCCc1cccs1)c1cc(Oc2ccc(NC(=O)c3cn(-c4ccccc4)c4ccccc4c3=O)cc2)ccn1 | 72%
7 | O=C(NCCCN1CCOCC1)c1cc(Oc2ccc(NC(=O)c3cn(-c4ccc(Cl)cc4)c4ccccc4c3=O)cc2F)ccn1 | 77.8%
8 | COc1ccc(-n2cc(C(=O)Nc3ccc(Oc4ccnc(C(=O)NCCc5cccs5)c4)cc3)c(=O)c3ccccc32)cc1 | 88.3%
9 | O=C(NCCc1cccs1)c1cc(Oc2ccc(NC(=O)c3cn(-c4ccc(Br)cc4F)c4ccccc4c3=O)cc2F)ccn1 | 97.1%
10 | COc1ccc(-n2cc(C(=O)Nc3ccc(Oc4ccnc(C(=O)NCCCN5CCOCC5)c4)cc3)c(=O)c3ccccc32)cc1 | 87%
11 | O=C(NCCCN1CCOCC1)c1cc(Oc2ccc(NC(=O)c3cn(-c4ccc(Br)cc4)c4ccccc4c3=O)cc2)ccn1 | > 100%
12 | O=C(NCCCN1CCOCC1)c1cc(Oc2ccc(NC(=O)c3cn(-c4ccc(Br)cc4)c4ccccc4c3=O)cc2F)ccn1 | 91.3%
13 | O=C(NCCc1cccs1)c1cc(Oc2ccc(NC(=O)c3cn(-c4ccc(Cl)cc4)c4ccccc4c3=O)cc2)ccn1 | 86.2%
14 | O=C(NCCc1cccs1)c1cc(Oc2ccc(NC(=O)c3cn(-c4ccccc4)c4ccccc4c3=O)cc2F)ccn1 | 99.8%
15 | O=C(NCCCN1CCOCC1)c1cc(Oc2ccc(NC(=O)c3cn(-c4ccccc4)c4ccccc4c3=O)cc2F)ccn1 | 83.2%
16 | O=C(NCCc1cccs1)c1cc(Oc2ccc(NC(=O)c3cn(-c4ccc(Br)cc4F)c4ccccc4c3=O)cc2)ccn1 | 92.8%
17 | COc1ccc(-n2cc(C(=O)Nc3ccc(Oc4ccnc(C(=O)NCCc5cccs5)c4)c(F)c3)c(=O)c3ccccc32)cc1 | 85.3%
18 | O=C(NCCc1cccs1)c1cc(Oc2ccc(NC(=O)c3cn(-c4ccc(F)c(Cl)c4)c4ccccc4c3=O)cc2)ccn1 | > 100%
19 | O=C(NCCCN1CCOCC1)c1cc(Oc2ccc(NC(=O)c3cn(-c4ccc(F)c(Cl)c4)c4ccccc4c3=O)cc2)ccn1 | > 100%
20 | O=C(NCCc1cccs1)c1cc(Oc2ccc(NC(=O)c3cn(-c4ccc(Cl)cc4)c4ccccc4c3=O)cc2F)ccn1 | 7.46%
21 | O=C(NCCCN1CCOCC1)c1cc(Oc2ccc(NC(=O)c3cn(-c4ccc(F)cc4)c4ccccc4c3=O)cc2F)ccn1 | 94.1%
22 | O=C(NCCCN1CCOCC1)c1cc(Oc2ccc(NC(=O)c3cn(-c4ccc(Cl)cc4)c4ccccc4c3=O)cc2)ccn1 | > 100%
23 | O=C(NCCc1cccs1)c1cc(Oc2ccc(NC(=O)c3cn(-c4ccc(F)cc4)c4ccccc4c3=O)cc2F)ccn1 | > 100%
24 | COc1ccc(-n2cc(C(=O)Nc3ccc(Oc4ccnc(C(=O)NCCCN5CCOCC5)c4)c(F)c3)c(=O)c3ccccc32)cc1 | 22.9%
25 | O=C(NCCCN1CCOCC1)c1cc(Oc2ccc(NC(=O)c3cn(-c4ccc(Br)cc4F)c4ccccc4c3=O)cc2F)ccn1 | 90.7%
26 | O=C(NCCc1cccs1)c1cc(Oc2ccc(NC(=O)c3cn(-c4ccc(F)c(Cl)c4)c4ccccc4c3=O)cc2F)ccn1 | 77.7%
27 | O=C(NCCCN1CCOCC1)c1cc(Oc2ccc(NC(=O)c3cn(-c4ccc(F)cc4)c4ccccc4c3=O)cc2)ccn1 | 87.1%
28 | COc1cc(/C=C/C(=O)CC(=O)/C=C/c2ccc(O)c(OC)c2)ccc1O [CURCUMIN] | 94.9%

system: J774.A1; assay: cells; conditions: Mus musculus, J774.A1, 24 h
Description: Antiinflammatory activity against mouse J774.A1 cells assessed as inhibition of LPS-stimulated IL-6 release measured for 24 hrs by ELISA method

Row | SMILES | pIC50
29 | O=C(NCCCN1CCOCC1)c1cc(Oc2ccc(NC(=O)c3cn(-c4ccc(Br)cc4)c4ccccc4c3=O)cc2F)ccn1 | 5.21
